Measured values reported in ChEMBL document CHEMBL1201862, “PubChem BioAssay data set” (2004).
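Five concentrations, 48 hours, 96-well plates. At the GI50, growth is halved.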 Active and inactive are the calls of the source. No stated cut-off is given here; in the data, active = GI50 up to about 1.1 µM and inactive = higher.

What was measured:
Assay in all cases: growth of human tumour cells (NCI), 48 h
NCI-H23 = system: NCI-H23
UO-31 = system: UO-31
T47D = system: T47D
SF-539 = system: SF-539
SK-OV-3 = system: SK-OV-3
SF-268 = system: SF-268
HOP-62 = system: HOP-62
UACC-62 = system: UACC-62
MOLT-4 = system: MOLT-4
MDA-N = system: MDA-N
HT-29 = system: HT-29
COLO 205 = system: COLO 205
SR = system: SR
Malme-3M = system: Malme-3M
MDA-MB-231 = system: MDA-MB-231
HCC 2998 = system: HCC 2998
OVCAR-4 = system: OVCAR-4
LOX IMVI = system: LOX IMVI
SK-MEL-2 = system: SK-MEL-2

Structure (SMILES)	GI50 (NCI-H23)	GI50 (UO-31)	GI50 (T47D)	GI50 (SF-539)	GI50 (SK-OV-3)	GI50 (SF-268)	GI50 (HOP-62)	GI50 (UACC-62)	GI50 (MOLT-4)	GI50 (MDA-N)	GI50 (HT-29)	GI50 (COLO 205)	GI50 (SR)	GI50 (Malme-3M)	GI50 (MDA-MB-231)	GI50 (HCC 2998)	GI50 (OVCAR-4)	GI50 (LOX IMVI)	GI50 (SK-MEL-2)
CS(=O)(=O)OCCn1c(=O)n(CCOS(C)(=O)=O)c(=O)n(CCOS(C)(=O)=O)c1=O	> 100 µM (inactive)	> 100 µM (inactive)	> 100 µM (inactive)	> 100 µM (inactive)	> 100 µM (inactive)	> 100 µM (inactive)	> 100 µM (inactive)	> 100 µM (inactive)	> 100 µM (inactive)	> 100 µM (inactive)	> 100 µM (inactive)	> 100 µM (inactive)	> 100 µM (inactive)	> 100 µM (inactive)	> 100 µM (inactive)	> 100 µM (inactive)	> 100 µM (inactive)	36.3 µM (inactive)	
NC(=S)NS(=O)(=O)c1ccc(Cl)cc1Cl	> 100 µM (inactive)	> 100 µM (inactive)	> 100 µM (inactive)	> 100 µM (inactive)	> 100 µM (inactive)	> 100 µM (inactive)	> 100 µM (inactive)	> 100 µM (inactive)	> 100 µM (inactive)	> 100 µM (inactive)	> 100 µM (inactive)	> 100 µM (inactive)		> 100 µM (inactive)	> 100 µM (inactive)	> 100 µM (inactive)	> 100 µM (inactive)	> 100 µM (inactive)	> 100 µM (inactive)
C=CC[C@H]1[C@H](O[Si](C)(C)C(C)(C)C)C=CC(=O)[C@@H]1CC(=O)N(Cc1ccccc1)Cc1ccccc1	5.46 µM (inactive)	11.7 µM (inactive)	3.3 µM (inactive)	25.1 µM (inactive)	26.1 µM (inactive)	6.55 µM (inactive)	25.6 µM (inactive)	13.5 µM (inactive)	9.93 µM (inactive)	16.4 µM (inactive)	6.35 µM (inactive)	12.9 µM (inactive)	9.29 µM (inactive)		14.2 µM (inactive)	20.3 µM (inactive)	17.5 µM (inactive)	12.5 µM (inactive)	14.8 µM (inactive)
CC1=NN(c2cccc(Cl)c2)C(=N/c2nc3ccccc3s2)/C1=C\c1ccccc1O	27.5 µM (inactive)	34 µM (inactive)	36.4 µM (inactive)	42.8 µM (inactive)	26 µM (inactive)	24.2 µM (inactive)	29.6 µM (inactive)		34.2 µM (inactive)	30.4 µM (inactive)	39.7 µM (inactive)		40.6 µM (inactive)		21 µM (inactive)	19.6 µM (inactive)	47.5 µM (inactive)	19.9 µM (inactive)	18.9 µM (inactive)
O=C(Nc1nc2ccc([N+](=O)[O-])cc2[n+]([O-])n1)C(F)(F)F	26.2 µM (inactive)	40.8 µM (inactive)	35.2 µM (inactive)	45.4 µM (inactive)		62.4 µM (inactive)		21.3 µM (inactive)	24.4 µM (inactive)	18.7 µM (inactive)	23.3 µM (inactive)	4.65 µM (inactive)	29.5 µM (inactive)	8.02 µM (inactive)	26.9 µM (inactive)	49.8 µM (inactive)	26.3 µM (inactive)		20.7 µM (inactive)
OCC1OC(OCC(O)C(O)C(O)C(/C=N/Nc2ccccc2)=N/Nc2ccccc2)C(O)C(O)C1O (stereo not drawn)	> 100 µM (inactive)	30.4 µM (inactive)	17 µM (inactive)	79.3 µM (inactive)	> 100 µM (inactive)	26 µM (inactive)	> 100 µM (inactive)		> 100 µM (inactive)	> 100 µM (inactive)	> 100 µM (inactive)	44.6 µM (inactive)	> 100 µM (inactive)	85.5 µM (inactive)	> 100 µM (inactive)	> 100 µM (inactive)		13.2 µM (inactive)	
O=C(O)CSC(CC(=O)c1ccc(Cl)cc1)c1ccc(Cl)cc1 (stereo not drawn)	42.7 µM (inactive)	34.6 µM (inactive)	29.3 µM (inactive)	36.6 µM (inactive)	36.5 µM (inactive)	25.1 µM (inactive)	32.9 µM (inactive)	39.2 µM (inactive)	6.81 µM (inactive)	20.6 µM (inactive)	22.1 µM (inactive)	49.8 µM (inactive)	2.36 µM (inactive)		42 µM (inactive)		27.4 µM (inactive)	17.3 µM (inactive)	50.8 µM (inactive)
CCOc1cc(C2CC(c3ccc(NS(=O)(=O)c4cc([N+](=O)[O-])ccc4C)cc3)=NN2c2ccc([N+](=O)[O-])cc2[N+](=O)[O-])ccc1O (stereo not drawn)	16.7 µM (inactive)	14.6 µM (inactive)	9.68 µM (inactive)	7.45 µM (inactive)	3.43 µM (inactive)	11.1 µM (inactive)	10.7 µM (inactive)		23.3 µM (inactive)	12.2 µM (inactive)	41.6 µM (inactive)	17.7 µM (inactive)	28.5 µM (inactive)	8.57 µM (inactive)	6.3 µM (inactive)		3.3 µM (inactive)	16.6 µM (inactive)	19.5 µM (inactive)
COc1cc(Cn2c3c(c4c(C(=O)NCCN(C)C)c(O)ccc42)C(=O)c2ccccc2C3=O)cc(OC)c1	2.09 µM (inactive)	1.71 µM (inactive)	1.8 µM (inactive)	1.79 µM (inactive)	1.94 µM (inactive)	1.99 µM (inactive)	2 µM (inactive)	1.91 µM (inactive)		1.63 µM (inactive)	1.87 µM (inactive)	1.81 µM (inactive)	0.31 µM (active)	1.54 µM (inactive)	2.1 µM (inactive)	1.13 µM (inactive)	1.71 µM (inactive)		1.8 µM (inactive)
O=S1(=O)C(c2ccccc2)C(N2CCCCC2)C1C1CC2c3ccccc3C1c1ccccc12 (stereo not drawn)	> 100 µM (inactive)	> 54.7 µM (inactive)	10.4 µM (inactive)	> 100 µM (inactive)	> 100 µM (inactive)	> 100 µM (inactive)	> 100 µM (inactive)	> 100 µM (inactive)	5.47 µM (inactive)	> 100 µM (inactive)	10.6 µM (inactive)	14.8 µM (inactive)	5.93 µM (inactive)	> 100 µM (inactive)	> 100 µM (inactive)		7.98 µM (inactive)	> 100 µM (inactive)	> 100 µM (inactive)
Cc1nc2ccc(Cl)cc2c2c1CCN2c1ccccc1	14.1 µM (inactive)	8.89 µM (inactive)	14.5 µM (inactive)	13.4 µM (inactive)		23 µM (inactive)	21.5 µM (inactive)	10.3 µM (inactive)	7.03 µM (inactive)	1.5 µM (inactive)	7.18 µM (inactive)	2.76 µM (inactive)	14.3 µM (inactive)	17.4 µM (inactive)	2.3 µM (inactive)	12.1 µM (inactive)	26.4 µM (inactive)	10.3 µM (inactive)	
COc1cc(CN2CCCCC2)cc2cc(C(=O)O)c(=O)oc12	> 100 µM (inactive)	> 100 µM (inactive)	> 70.1 µM (inactive)	> 100 µM (inactive)	> 100 µM (inactive)	> 100 µM (inactive)	> 100 µM (inactive)	> 100 µM (inactive)	> 100 µM (inactive)	> 100 µM (inactive)	> 100 µM (inactive)	> 100 µM (inactive)		> 100 µM (inactive)	> 100 µM (inactive)	> 100 µM (inactive)	> 100 µM (inactive)	> 100 µM (inactive)	> 100 µM (inactive)
O=C(O)C1C2C=CC(O2)C1C(=O)Nc1ccccc1 (stereo not drawn)	> 100 µM (inactive)	> 100 µM (inactive)	> 100 µM (inactive)		> 100 µM (inactive)	> 100 µM (inactive)	> 100 µM (inactive)	> 100 µM (inactive)	> 100 µM (inactive)	> 100 µM (inactive)	> 100 µM (inactive)	> 100 µM (inactive)	> 100 µM (inactive)	> 100 µM (inactive)	> 100 µM (inactive)		> 100 µM (inactive)	> 100 µM (inactive)	> 100 µM (inactive)
CCCCCC(/C=C/[C@@H]1[C@@H](C(O)CCCCCC(=O)OC)C(=O)C[C@H]1O[Si](C)(C)C(C)(C)C)OCOCCOC (stereo partly drawn)	15 µM (inactive)	15.6 µM (inactive)	21.4 µM (inactive)	7.11 µM (inactive)	18.8 µM (inactive)	14 µM (inactive)	16.9 µM (inactive)	13.1 µM (inactive)	1.73 µM (inactive)	8.51 µM (inactive)	6.7 µM (inactive)	18.9 µM (inactive)		16.8 µM (inactive)	21.7 µM (inactive)	23 µM (inactive)	18.5 µM (inactive)	3.54 µM (inactive)	17 µM (inactive)
CC1OC(NCCNCCNC2OC(C)C(O)C(O)C2O)C(O)C(O)C1O (stereo not drawn)	> 100 µM (inactive)	> 100 µM (inactive)	> 100 µM (inactive)	> 100 µM (inactive)		> 100 µM (inactive)	> 100 µM (inactive)	> 100 µM (inactive)	> 100 µM (inactive)	> 100 µM (inactive)	> 100 µM (inactive)	> 100 µM (inactive)	> 100 µM (inactive)	> 100 µM (inactive)	> 100 µM (inactive)		> 100 µM (inactive)	> 100 µM (inactive)	> 100 µM (inactive)
